The values below come from US11390604B2 (Hoffmann-La Roche Inc., priority 2019, dated 2022).

Counter-ions that a name gives are not always drawn. Like-named read-outs stand apart in the source and are kept apart here.

The test system of this assay is Acinetobacter baumannii ATCC 17961. As to the kind of experiment: Antimicrobial susceptibility testing: 90% growth inhibitory concentration (IC90) determination. The format is cell-based. A digest of the protocol:
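Broth microdilution in Iso-Sensitest medium, twofold series (e.g. 50 to 0.097 μM final), ~5×10^5 CFU/ml inoculum, 35±2 °C. OD600 read every 20 min over 16 h. IC90 derived from growth inhibition during logarithmic phase.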

Setting [1] is: ATCC17961, Acinetobacter baumannii ATCC 17961, Iso-Sensitest broth, read-out: ATCC 17961 IC90.
Setting [2] is: Acinetobacter baumannii, ATCC17961, read-out: ATCC 17961 IC90, Acinetobacter baumannii ATCC 17961, Iso-Sensitest broth.

Turning to `Cn1c(-c2cn(C3CC3(F)F)nc2C(F)(F)F)cnc1C(=O)Nc1ccc(C(=O)N2CC3C(N)C3C2)c(Cl)c1` (stereo not drawn) [Example 212, N-(4-(6-amino-3-azabicyclo[3.1.0]hexane-3-carbonyl)-3-chlorophenyl)-5-(1-(2,2-difluorocyclopropyl)-3-(trifluoromethyl)-1H-pyrazol-4-yl)-1-methyl-1H-imidazole-2-carboxamide formate], the 90% effect concentration (IC90) under setting [1] was determined as 0.235 µM.
`Cn1c(-c2cn(C3CC3)nc2C(F)(F)F)cnc1C(=O)Nc1ccc(C(=O)N2CCN(C(=O)NCC3CNC3)CC2)c(Cl)c1` [Example 214, N-(azetidin-3-ylmethyl)-4-(2-chloro-4-(5-(1-cyclopropyl-3-(trifluoromethyl)-1H-pyrazol-4-yl)-1-methyl-1H-imidazole-2-carboxamido)benzoyl)piperazine-1-carboxamide formate]: the IC90 under setting [1] worked out at 0.241 µM.
For the compound “N-(3-amino-3- methylcyclobutyl)-4-[2-chloro- 4-[[5-[1-cyclopropyl-3- (trifluoromethyl)pyrazol-4-yl]- 1-methylimidazole-2- carbonyl]amino]benzoyl]pipera- zine-1-carboxamide;formic acid [Example 238]”, for the setting “Acinetobacter baumannii ATCC 17961, Iso-Sensitest broth, read-out: ATCC 17961 IC90”, the 90% effect concentration (IC90) is 0.273 µM.
As to `Cn1c(-c2cn(C3CC3)nc2C(F)(F)F)cnc1C(=O)Nc1ccc(C(=O)N2CCN(C(=O)[C@@H]3CCNC3)CC2)c(Cl)c1` [Example 229, (R)-N-(3-chloro-4-(4-(pyrrolidine-3-carbonyl)piperazine-1-carbonyl)phenyl)-5-(1-cyclopropyl-3-(trifluoromethyl)-1H-pyrazol-4-yl)-1-methyl-1H-imidazole-2-carboxamide hydrochloride], the IC90 under setting [1] was 0.263 µM.
Turning to `C#CCn1cc(-c2cnc(C(=O)Nc3ccc(C(=O)N4CCN(C(=O)N5C[C@@H]6CNC[C@H]6C5)CC4)c(Cl)c3)n2C)c(C(F)(F)F)n1` [Example 90, N-[4-[4-[(3aS,6aS)-2,3,3a,4,6,6a-hexahydro-1H-pyrrolo[3,4-c]pyrrole-5-carbonyl]piperazine-1-carbonyl]-3-chlorophenyl]-1-methyl-5-[1-prop-2-ynyl-3-(trifluoromethyl)pyrazol-4-yl]imidazole-2-carboxamide], the IC90 under setting [1] was determined as 0.218 µM.
With `Cn1c(-c2cn(C3CC3(F)F)nc2C(F)(F)F)cnc1C(=O)Nc1ccc(C(=O)N2CCC(F)(CNC(=O)N[C@H]3CNC[C@@H]3O)CC2)c(Cl)c1` (relative stereo) [Example 179, N-(3-chloro-4-(4-fluoro-4-((3-(trans-4-hydroxypyrrolidin-3-yl)ureido)methyl)piperidine-1-carbonyl)phenyl)-5-(1-(2,2-difluorocyclopropyl)-3-(trifluoromethyl)-1H-pyrazol-4-yl)-1-methyl-1H-imidazole-2-carboxamide Formate], the concentration for an effect of 90% (IC90) under setting [2] worked out at 0.192 µM.
As for `Cn1c(-c2cn(C3CC3)nc2C(F)(F)F)cnc1C(=O)Nc1ccc(C(=O)N2CCN(C(=O)NCC3(O)CCNCC3)CC2)c(Cl)c1` [Example 320, 4-(2-chloro-4-(5-(1-cyclopropyl-3-(trifluoromethyl)-1H-pyrazol-4-yl)-1-methyl-1H-imidazole-2-carboxamido)benzoyl)-N-((4-hydroxypiperidin-4-yl)methyl)piperazine-1-carboxamide formate], under setting [1], the concentration for an effect of 90% (IC90) was found to be 0.403 µM.
Regarding `Cn1c(-c2cn(CC(F)F)nc2C(F)(F)F)cnc1C(=O)Nc1ccc(C(=O)N2CCN(C(=O)NCC3(O)CNC3)CC2)c(Cl)c1` [Example 303, 4-[2-chloro-4-[[5-[1-(2,2-difluoroethyl)-3-(trifluoromethyl)pyrazol-4-yl]-1-methyl-imidazole-2-carbonyl]amino]benzoyl]-N-[(3-hydroxyazetidin-3-yl)methyl]piperazine-1-carboxamide; formic acid], the IC90 under setting [1] amounted to 0.371 µM.
For the compound `C#CCn1cc(-c2cnc(C(=O)Nc3ccc(C(=O)N4CCN(C(=O)N[C@H]5[C@@H]6CNC[C@@H]65)CC4)c(Cl)c3)n2C)c(C(F)(F)F)n1` [Example 87, 4-[2-chloro-4-[[1-methyl-5-[1-prop-2-ynyl-3-(trifluoromethyl)pyrazol-4-yl]imidazole-2-carbonyl]amino]benzoyl]-N-[rac-(1R,5S)-3-azabicyclo[3.1.0]hexan-6-yl]piperazine-1-carboxamide], the IC90 under setting [1] is 0.216 µM.
For the compound `C#CCn1cc(-c2cnc(C(=O)Nc3ccc(C(=O)N4CCN(C(=O)[C@H]5CCNC[C@H]5O)CC4)c(Cl)c3)n2C)c(C(F)(F)F)n1` [Example 40, N-(3-chloro-4-(4-((3S,4S)-3-hydroxypiperidine-4-carbonyl)piperazine-1-carbonyl)phenyl)-1-methyl-5-(1-(prop-2-yn-1-yl)-3-(trifluoromethyl)-1H-pyrazol-4-yl)-1H-imidazole-2-carboxamide hydrochloride], the 90% effect concentration (IC90) under setting [1] is 0.241 µM.
Regarding `C#CCn1cc(-c2cnc(C(=O)Nc3ccc(C(=O)N4CCN(C(=O)[C@H]5CCCN5)CC4)c(Cl)c3)n2C)c(C(F)(F)F)n1` [Example 38, N-[3-chloro-4-[4-[(2R)-pyrrolidine-2-carbonyl]piperazine-1-carbonyl]phenyl]-1-methyl-5-[1-prop-2-ynyl-3-(trifluoromethyl)pyrazol-4-yl]imidazole-2-carboxamide hydrochloride], the IC90 under setting [1] is 0.275 µM.
In the case of `Cn1c(-c2cn(C3CC3)nc2C(F)(F)F)cnc1C(=O)Nc1ccc(C(=O)N2CCN(C(=O)N[C@@H]3C[C@H](N)C3(C)C)CC2)c(Cl)c1` [Example 266, N-[(1R,3S)-3-amino-2,2-dimethylcyclobutyl]-4-[2-chloro-4-[[5-[1-cyclopropyl-3-(trifluoromethyl)pyrazol-4-yl]-1-methylimidazole-2-carbonyl]amino]benzoyl]pipera-zine-1-carboxamide;formic acid], the IC90 under setting [2] came out at 0.33 µM.
Turning to `Cn1c(-c2cn(C3CC3(F)F)nc2C(F)(F)F)cnc1C(=O)Nc1ccc(C(=O)N2C[C@H]3CNC[C@H]3C2)c(Cl)c1` (mixture of isomers) [Example 271, rac-N-(3-chloro-4-((3aR,6aS)-octahydropyrrolo[3,4-c]pyrrole-2-carbonyl)phenyl)-5-(1-(2,2-difluorocyclopropyl)-3-(trifluoromethyl)-1H-pyrazol-4-yl)-1-methyl-1H-imidazole-2-carboxamide formate], the IC90 under setting [1] worked out at 0.335 µM.
Take `Cn1c(-c2cn(Cc3cccnc3)nc2C(F)(F)F)cnc1C(=O)Nc1ccc(C(=O)N2CCN(C(=O)[C@H]3CC[C@@H](N)C3)CC2)c(Cl)c1` [Example 64, N-(4-(4-((1S,3R)-3-aminocyclopentane-1-carbonyl)piperazine-1-carbonyl)-3-chlorophenyl)-1-methyl-5-(1-(pyridin-3-ylmethyl)-3-(trifluoromethyl)-1H-pyrazol-4-yl)-1H-imidazole-2-carboxamide trihydrochloride]: the IC90 under setting [1] stood at 4.67 µM.
Turning to `Cn1c(-c2cn(CC3CC3(F)F)nc2C(F)(F)F)cnc1C(=O)Nc1ccc(C(=O)N[C@H]2[C@@H]3CN(C(=O)N[C@@H]4CNC[C@H]4O)C[C@@H]32)c(Cl)c1` (mixture of isomers) [Example 385, rac-(1R,5S,6s)-6-(2-chloro-4-(5-(1-((2,2-difluorocyclopropyl)methyl)-3-(trifluoromethyl)-1H-pyrazol-4-yl)-1-methyl-1H-imidazole-2-carboxamido)benzamido)-N-((3S,4S)-4-hydroxypyrrolidin-3-yl)-3-azabicyclo[3.1.0]hexane-3-carboxamide formate], the IC90 under setting [1] is 0.1 µM.

As a reminder, the IC90 is the point of the concentration-response curve where the effect stands at 90%.
